In ChEMBL document CHEMBL5230104, “Systemic review on B-RafV600E mutation as potential therapeutic target for the treatment of cancer” (Eur J Med Chem, 2020):

What was measured:
[1] = molecular target: T1, Serine/threonine-protein kinase B-raf (Homo sapiens, UniProt P15056); assay: Inhibition of B-Raf (unknown origin)
[2] = tested on: HT-29; assay: Antiproliferative activity against human HT-29 cells assessed as cell growth proliferation; type: functional, cell-based
[3] = tested on: COLO 205; assay: Antiproliferative activity against human COLO 205 cells assessed as inhibition of cell growth; type: functional, cell-based
[4] = tested on: SK-MEL-2; assay: Antiproliferative activity against human SK-MEL-2 cells assessed as inhibition of cell growth; type: functional, cell-based
[5] = molecular target: T1, Serine/threonine-protein kinase B-raf; assay: Inhibition of wild type B-Raf (unknown origin)
[6] = tested on: A-375; assay: Antiproliferative activity against human A-375 cells assessed as inhibition of cell growth; type: functional, cell-based
[7] = molecular target: T2, Serine/threonine-protein kinase B-raf (Homo sapiens, UniProt P15056, V600E); assay: (§1) Inhibition of B-Raf V600E mutant (unknown origin)
Target sequence in this assay (P15056 whole entry V600E): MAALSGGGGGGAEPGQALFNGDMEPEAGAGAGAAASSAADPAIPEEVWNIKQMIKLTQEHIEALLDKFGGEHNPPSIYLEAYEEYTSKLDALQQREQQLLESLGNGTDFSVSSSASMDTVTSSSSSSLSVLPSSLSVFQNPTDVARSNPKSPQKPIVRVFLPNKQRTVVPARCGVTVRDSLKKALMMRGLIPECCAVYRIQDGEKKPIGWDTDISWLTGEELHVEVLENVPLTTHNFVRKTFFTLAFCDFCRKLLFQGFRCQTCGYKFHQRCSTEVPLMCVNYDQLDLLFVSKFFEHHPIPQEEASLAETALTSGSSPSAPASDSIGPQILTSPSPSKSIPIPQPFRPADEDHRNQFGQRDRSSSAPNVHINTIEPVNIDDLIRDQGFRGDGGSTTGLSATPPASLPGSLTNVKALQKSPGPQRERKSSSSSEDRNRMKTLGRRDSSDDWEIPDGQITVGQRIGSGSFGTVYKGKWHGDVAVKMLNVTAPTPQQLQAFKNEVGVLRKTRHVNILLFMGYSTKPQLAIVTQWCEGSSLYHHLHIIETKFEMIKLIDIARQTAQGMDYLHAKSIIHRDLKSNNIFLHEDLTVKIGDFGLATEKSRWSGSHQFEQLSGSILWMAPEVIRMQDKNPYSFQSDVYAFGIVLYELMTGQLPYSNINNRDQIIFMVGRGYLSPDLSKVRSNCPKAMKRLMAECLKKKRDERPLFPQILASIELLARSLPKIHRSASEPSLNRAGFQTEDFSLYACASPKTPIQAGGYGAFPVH

[8] = tested on: HepG2; assay: Antiproliferative activity against human HepG2 cells assessed as inhibition of cell growth; type: functional, cell-based
[9] = tested on: A-375; assay: Antitumor activity against human A-375 cells xenografted in mouse model assessed as tumor growth inhibition at 50 mg/kg relative to control; type: functional; design: scale not given: the % may be the effect or the level left
[10] = tested on: HUVEC; assay: Cytotoxicity against HUVEC cells; type: functional, cell-based; conditions: Homo sapiens
[11] = tested on: Serine/threonine-protein kinase B-raf (Homo sapiens), P15056 [V600E]; assay: as §1
[12] = tested on: A-375; assay: Cytotoxicity against human A-375 cells; type: functional, cell-based
[13] = tested on: HepG2; assay: Antiproliferative activity against human HepG2 cells; type: functional, cell-based
[14] = tested on: MDA-MB-453; assay: Antiproliferative activity against human MDA-MB-453 cells; type: functional, cell-based
[15] = tested on: SW480; assay: Antiproliferative activity against human SW480 cells; type: functional, cell-based
[16] = molecular target: T2, Serine/threonine-protein kinase B-raf; assay: Binding affinity to B-Raf V600E mutant (unknown origin)
Target sequence in this assay (P15056 2-766 V600E limits assumed): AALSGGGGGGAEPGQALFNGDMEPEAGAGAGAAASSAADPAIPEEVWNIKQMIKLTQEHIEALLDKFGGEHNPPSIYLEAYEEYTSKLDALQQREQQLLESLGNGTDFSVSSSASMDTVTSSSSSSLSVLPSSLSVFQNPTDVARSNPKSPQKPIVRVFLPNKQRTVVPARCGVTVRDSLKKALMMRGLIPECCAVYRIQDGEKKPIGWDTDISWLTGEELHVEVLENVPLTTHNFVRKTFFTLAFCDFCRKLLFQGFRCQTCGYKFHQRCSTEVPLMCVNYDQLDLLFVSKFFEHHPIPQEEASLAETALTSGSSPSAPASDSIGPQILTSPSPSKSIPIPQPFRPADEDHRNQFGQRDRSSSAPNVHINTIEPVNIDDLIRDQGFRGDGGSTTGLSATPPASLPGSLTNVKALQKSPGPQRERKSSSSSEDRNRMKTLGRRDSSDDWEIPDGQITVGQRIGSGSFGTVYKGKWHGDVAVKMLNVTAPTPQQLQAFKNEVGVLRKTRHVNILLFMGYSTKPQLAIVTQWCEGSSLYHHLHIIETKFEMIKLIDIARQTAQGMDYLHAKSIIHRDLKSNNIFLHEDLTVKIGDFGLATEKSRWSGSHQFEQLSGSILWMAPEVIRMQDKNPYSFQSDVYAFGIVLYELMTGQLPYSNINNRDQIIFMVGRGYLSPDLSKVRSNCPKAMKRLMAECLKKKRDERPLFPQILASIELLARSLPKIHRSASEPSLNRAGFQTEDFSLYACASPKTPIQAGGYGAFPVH

[17] = tested on: RPMI-8226; assay: Antiproliferative activity against human RPMI-8226 cells; type: functional, cell-based
[18] = tested on: MDA-MB-468; assay: Antiproliferative activity against human MDA-MB-468 cells; type: functional, cell-based
[19] = tested on: K562; assay: Antiproliferative activity against human K562 cells; type: functional, cell-based
[20] = tested on: SK-MEL-5; assay: Antiproliferative activity against human SK-MEL-5 cells; type: functional, cell-based
[21] = tested on: COLO 205; assay: Antiproliferative activity against human COLO 205 cells incubated for 72 hrs by celltiter glo assay; type: functional, cell-based; conditions: COLO 205, 72 h
[22] = tested on: A-375; assay: Antiproliferative activity against human A-375 cells incubated for 72 hrs by celltiter glo assay; type: functional, cell-based; conditions: A-375, 72 h
[23] = tested on: SW1417; assay: Antiproliferative activity against human SW1417 cells incubated for 72 hrs by celltiter glo assay; type: functional, cell-based; conditions: SW1417, 72 h
[24] = tested on: RKO; assay: Antiproliferative activity against human RKO cells incubated for 72 hrs by celltiter glo assay; type: functional, cell-based
[25] = tested on: WM-115; assay: Antiproliferative activity against human WM-115 cells incubated for 72 hrs by celltiter glo assay; type: functional, cell-based; conditions: WM-115, 72 h
[26] = tested on: WM 266-4; assay: Antiproliferative activity against human WM266-4 cells incubated for 24 hrs by MTT assay; type: functional, cell-based; conditions: WM 266-4, 24 h
[27] = Inhibition of full length GST tagged mouse B-Raf V600E mutant measured after 25 mins by ELISA method
[28] = tested on: A-375; assay: Antiproliferative activity against human A-375 cells assessed as inhibition of cell viability; type: functional, cell-based
[29] = Antiproliferative activity against human WM1361 cells assessed as cell growth inhibition; type: functional, cell-based
[30] = tested on: A-375; assay: Antiproliferative activity against human A-375 cells assessed as cell growth inhibition; type: functional, cell-based
[31] = tested on: MV4-11; assay: Anticancer activity against human MV4-11 cells; type: functional, cell-based
[32] = tested on: SK-MEL-2; assay: Anticancer activity against human SK-MEL-2 cells; type: functional, cell-based
[33] = tested on: A549; assay: Anticancer activity against human A549 cells; type: functional, cell-based
[34] = tested on: K562; assay: Anticancer activity against human K562 cells; type: functional, cell-based
[35] = tested on: HCT-116; assay: Anticancer activity against human HCT-116 cells; type: functional, cell-based

T1 sequence (P15056 whole entry): as the sequence (P15056 whole entry V600E) above, with E600V counted along it
Serine/threonine-protein kinase B-raf (Homo sapiens), P15056 [V600E], sequence (P15056 whole entry V600E): as the sequence (P15056 whole entry V600E) above

`COc1ccc(-c2n[nH]c(/N=C/c3ccc(O)c(OC)c3)n2)cc1` gave an IC50 [1] of 700 nM and an IC50 [2] of 1300 nM.
For `Cc1ccc(C(=O)Nc2ccc(Cl)c(C(F)(F)F)c2)cc1NC(=O)C1(c2ccnc(NCCN3CCN(C)CC3)n2)CC1`, the IC50 [3] was 1920 nM, the IC50 [4] was 580 nM and the IC50 [5] was 19.7 nM. The IC50 [6] was 1070 nM, the IC50 [7] was 12.6 nM and the IC50 [8] was 2460 nM.
Molecule `CNC(=O)c1nc2ccc(C(=O)c3cccc(NC(=O)Nc4ccc(Cl)c(C(F)(F)F)c4)c3)cc2[nH]1` has an Activity [9] of 17.99%, an IC50 [10] of 12500 nM and an IC50 [11] of 57.8 nM. For the same molecule, the IC50 [12] was 3620 nM.
`CNC(=O)c1cc(Cn2ccc3cc(NC(=O)Nc4ccc(Cl)c(C(F)(F)F)c4)ccc32)ccn1` gave an IC50 [13] of 6630 nM, an IC50 [14] of 21900 nM and an IC50 [7] of 510 nM. It also gave an IC50 [15] of 13500 nM.
Work on `COc1cccc(-c2nn(-c3ccccc3)cc2-c2ccncc2)c1` yielded an IC50 [16] of 1440 nM, an IC50 [17] of 1710 nM and an IC50 [18] of 6700 nM. The IC50 [19] was 3420 nM.
`O=S(=O)(NCCCNc1cc(-c2cn(-c3ccccc3)nc2-c2cccc(O)c2)ccn1)c1ccc(Cl)cc1` showed an IC50 [5] of 4870 nM, an IC50 [20] of 1270 nM and an IC50 [7] of 1160 nM.
Work on `CC(=O)Nc1cc(-c2sc(C3CCN(C4CC4)CC3)nc2-c2cccc(NS(=O)(=O)c3cc(F)ccc3F)c2F)ccn1` yielded an IC50 [21] of 5 nM, an IC50 [22] of 3 nM and an IC50 [23] of 208 nM. It also gave an IC50 [24] of 2280 nM and an IC50 [25] of 148 nM.
For `Oc1ccccc1C1CC(c2ccc(Cl)c(Cl)c2)=NN1c1ccccc1` (configuration not stated), the IC50 [26] was 1750 nM and the IC50 [27] was 150 nM.
`O=S(=O)(Nc1ccc(F)c(Nc2ccccc2-c2ncnc3[nH]cnc23)c1F)c1ccoc1` showed an IC50 [5] of 2.2 nM and an IC50 [7] of 2 nM.
With `CCCCN1CCN(Oc2cc3nccc(Oc4ccc(NS(=O)(=O)c5cc(F)ccc5F)cc4F)c3cc2OC)CC1` the IC50 [5] was 100 nM and the IC50 [7] was 91 nM.
In the case of `CC(C)(C)c1cc(NC(=O)Nc2ccc(Oc3ccnc4[nH]c(=O)cnc34)cc2F)n(-c2ccccc2)n1`, the IC50 [5] is reported as 100 nM and the IC50 [28] is reported as 12000 nM.
`COc1ccc(-n2cc(NC(=O)c3cccc(NC(=O)Nc4ccc(Cl)c(C(F)(F)F)c4)c3)cn2)cc1` gave an IC50 [29] of 7120 nM, an IC50 [5] of 220 nM and an IC50 [7] of 35 nM. It also gave an IC50 [30] of 390 nM.
Work on `O=C(Nc1ccc(Oc2ccc(C(=O)c3ncc[nH]3)cc2)cc1)Nc1ccc(Cl)c(C(F)(F)F)c1` yielded an IC50 [31] of 380 nM, an IC50 [5] of 134 nM and an IC50 [32] of 5400 nM. It also gave an IC50 [33] of 9110 nM, an IC50 [34] of 9130 nM and an IC50 [7] of 86 nM. For the same molecule, the IC50 [35] was 10900 nM.
